In PubChem BioAssay (NCI):
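Method: 48-hour compound exposure of cells in 96-well plates, five concentrations, linear interpolation of endpoints. Abbreviation: GI50, concentration required for 50% inhibition of growth. TGI marks complete inhibition of growth.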

Tests used:
Experiment in all cases: NCI anticancer screen, dose series, 48 h
[1] = tested on: SK-OV-3 ovarian
[2] = tested on: A498 renal
[3] = tested on: MDA-MB-435
[4] = tested on: UO-31 renal
[5] = tested on: HOP-62 NSCLC
[6] = tested on: SNB-19 CNS
[7] = tested on: OVCAR-3 ovarian
[8] = tested on: SNB-75 CNS
[9] = tested on: NCI-H23 lung
[10] = tested on: COLO 205 colon

Row | SMILES | GI50 [1] | TGI [1] | GI50 [2] | TGI [2] | GI50 [3] | TGI [3] | GI50 [4] | TGI [4] | GI50 [5] | TGI [5] | GI50 [6] | TGI [6] | GI50 [7] | TGI [7] | GI50 [8] | TGI [8] | GI50 [9] | TGI [9] | GI50 [10] | TGI [10]
1 | COc1ccc(NC(=O)n2nc(N)c3ccccc32)cc1OC | > 100 µM | > 100 µM | 30.3 µM | 85.4 µM | > 100 µM | > 100 µM | 28.5 µM | > 100 µM | 75.2 µM | > 100 µM | > 100 µM | > 100 µM | 92 µM | > 100 µM | 30.6 µM | > 100 µM | 83.5 µM | > 100 µM | 85.8 µM | > 100 µM
2 | O=[N+]([O-])c1ccc(-c2nc(-c3ccccc3)c(-c3ccccc3)n2-c2ccccc2)cc1 | 2.03 µM | 9.21 µM | 2.81 µM | 9.12 µM | 2.5 µM | 7.63 µM | 1.99 µM | 6.67 µM | 5.36 µM | > 86.2 µM | 3.75 µM | > 48.8 µM | 2.43 µM | 6.67 µM | 2.64 µM | 22 µM | 2.62 µM | 11.3 µM | 1.78 µM | 3.49 µM
3 | CCOC(=O)c1sc2nc3sc(N=Nc4ccc(Cl)cc4)c(O)n3c(=S)c2c1C | 31 µM | > 100 µM | 24.1 µM | 62.5 µM | 35.2 µM | > 100 µM | 53.6 µM | > 100 µM | 30.3 µM | > 100 µM | 27.4 µM | > 100 µM | 36.7 µM | > 100 µM | 15.5 µM | > 100 µM | 14.2 µM | 42.4 µM | 17.7 µM | > 100 µM
4 | CCC(C)n1cc(C)c2c(C(=O)NCc3c(C)cc(C)[nH]c3=O)cc(Br)cc21 (stereo not drawn) | > 100 µM | > 100 µM | 38.4 µM | > 100 µM | 27.1 µM | > 100 µM | 70.5 µM | > 100 µM | 65.2 µM | > 100 µM | > 100 µM | > 100 µM | 44.5 µM | > 100 µM | 43.5 µM | > 100 µM | 76.3 µM | > 100 µM | 42.1 µM | > 100 µM
5 | COc1cccc(C2C(C#N)=C(N)Oc3cc(N)ccc32)c1 (stereo not drawn) | 0.4 µM | 3.5 µM | 0.203 µM | – | 0.138 µM | 0.672 µM | 0.858 µM | > 100 µM | 0.692 µM | > 100 µM | – | > 100 µM | 0.337 µM | 1.03 µM | 0.293 µM | > 100 µM | 0.571 µM | > 100 µM | 0.385 µM | 2.09 µM
6 | Cc1ccc(NC(=O)NC(=O)c2ccc([N+](=O)[O-])cc2[N+](=O)[O-])cc1Oc1ncc(Cl)cn1 | – | 25.7 µM | – | 22.2 µM | – | 0.542 µM | – | 17.3 µM | – | 12.5 µM | – | 21.4 µM | – | 13.6 µM | – | 2.4 µM | – | 9.39 µM | – | 5.9 µM
7 | Cc1cc2cc3cc(C)c(N(C)C)cc3nc2cc1N(C)C | 2.87 µM | 25.4 µM | 4.32 µM | 26.2 µM | 2.77 µM | 11.8 µM | 6 µM | > 100 µM | 5.08 µM | 19.9 µM | 3.56 µM | > 100 µM | 2.54 µM | 11.1 µM | 2.35 µM | 20.1 µM | 1.8 µM | 20.8 µM | 1.84 µM | 7.41 µM
8 | NC(N)=NS(=O)(=O)c1ccc(NCc2c3ccccc3nc3ccccc23)cc1 | – | 27.3 µM | – | 12 µM | – | > 100 µM | – | 87.4 µM | – | 5.92 µM | – | 20.7 µM | – | 49.6 µM | – | 9.02 µM | – | 13.2 µM | – | > 100 µM
9 | COc1ccc(C(=O)c2ccc(OC)c(OC)c2OC)cc1 | 2.06 µM | 13.1 µM | 1.08 µM | 9.39 µM | 0.2 µM | 0.525 µM | 4.65 µM | > 100 µM | 2.39 µM | > 100 µM | 4.87 µM | > 100 µM | 0.773 µM | 2.86 µM | 1.76 µM | > 100 µM | 3.32 µM | > 100 µM | 1.14 µM | 3.13 µM
10 | CCN(CC)CCCNc1cccc2c(SCc3ccccc3)ccnc12 | 2.02 µM | 4.51 µM | 1.92 µM | 4.98 µM | 1.84 µM | 3.65 µM | 0.828 µM | 2.44 µM | 1.61 µM | 3.05 µM | 1.83 µM | 3.89 µM | 1.75 µM | 3.43 µM | 1.6 µM | 3.22 µM | 1.9 µM | 5.09 µM | 1.84 µM | 3.44 µM
